# Values quoted from earlier work as cited in US6703001B1, “Cosmetic and dermatological light-protective formulations containing triazine derivatives one or several esters of branched-chain carboxylic acids and branched-chain alcohols” (Beiersdorf AG, priority 1998, dated 2004).
smiles,measurement,setting,value
"CCCCC(CC)COC(=O)c1ccc(Nc2nc(Nc3ccc(C(=O)OCC(CC)CCCC)cc3)nc(Nc3ccc(C(=O)OCC(CC)CCCC)cc3)n2)cc1 (stereo not drawn) [UVINUL7 T 150, tris(2-ethylhexyl) 4,4′,4″-(1,3,5-triazine-2,4,6-triyltriimino)trisbenzoate]","corresponding dissolved, and therefore active, UV filter substance",corresponds to the about 15% by weight solubility in known solvents,1-1.5 % by weight
same,maximum amount of the filter that known solvents can dissolve,known solvents for this UVB filter (lipids),about 15 % by weight
same,solubility in lipids (in words),lipids,poor solubility in lipids
